# Literature values in patent publication US12465592B2, “Structured encapsulated silicon-containing particles” (SISAF LIMITED, priority 2019, dated 2025).
compound,measurement,value
Clc1ccc(COC(Cn2ccnc2)c2ccc(Cl)cc2Cl)c(Cl)c1 (stereo not shown) [Miconazole],aqueous solubility,< 1 µg/mL
